{"source": "patent US6080780A", "about": "“Use of nitroflavonoids for the treatment of anxiety” (University of Strathclyde, priority 1995, dated 2000)", "key": {"[1]": {"target": "central benzodiazepine receptor (Rattus norvegicus, UniProt P18508+P62813)", "sequence (P62813 28-455)": "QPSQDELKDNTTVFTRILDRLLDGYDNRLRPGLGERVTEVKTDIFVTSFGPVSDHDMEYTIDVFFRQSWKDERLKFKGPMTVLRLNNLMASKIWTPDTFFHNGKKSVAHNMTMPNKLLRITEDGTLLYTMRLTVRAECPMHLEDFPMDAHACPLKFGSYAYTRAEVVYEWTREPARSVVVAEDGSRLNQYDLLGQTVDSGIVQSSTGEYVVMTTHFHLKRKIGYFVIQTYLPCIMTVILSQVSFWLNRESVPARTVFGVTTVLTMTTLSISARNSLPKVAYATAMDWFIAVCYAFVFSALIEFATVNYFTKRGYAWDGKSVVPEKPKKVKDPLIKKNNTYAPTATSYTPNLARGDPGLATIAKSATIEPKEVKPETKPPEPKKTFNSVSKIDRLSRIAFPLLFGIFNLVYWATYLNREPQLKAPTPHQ", "sequence (P18508 39-466)": "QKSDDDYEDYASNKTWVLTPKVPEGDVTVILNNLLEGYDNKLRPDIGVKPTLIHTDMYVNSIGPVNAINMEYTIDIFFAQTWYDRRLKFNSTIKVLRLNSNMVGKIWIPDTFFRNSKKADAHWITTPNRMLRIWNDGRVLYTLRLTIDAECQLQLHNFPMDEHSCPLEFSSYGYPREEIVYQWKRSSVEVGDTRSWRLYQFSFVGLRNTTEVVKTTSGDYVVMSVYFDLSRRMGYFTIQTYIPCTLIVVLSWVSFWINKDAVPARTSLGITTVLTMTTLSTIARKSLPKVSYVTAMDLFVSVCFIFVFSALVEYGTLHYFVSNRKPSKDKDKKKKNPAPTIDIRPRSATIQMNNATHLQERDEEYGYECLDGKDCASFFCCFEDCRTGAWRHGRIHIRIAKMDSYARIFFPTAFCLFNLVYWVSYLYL", "sequence (P63138 26-474 partner)": "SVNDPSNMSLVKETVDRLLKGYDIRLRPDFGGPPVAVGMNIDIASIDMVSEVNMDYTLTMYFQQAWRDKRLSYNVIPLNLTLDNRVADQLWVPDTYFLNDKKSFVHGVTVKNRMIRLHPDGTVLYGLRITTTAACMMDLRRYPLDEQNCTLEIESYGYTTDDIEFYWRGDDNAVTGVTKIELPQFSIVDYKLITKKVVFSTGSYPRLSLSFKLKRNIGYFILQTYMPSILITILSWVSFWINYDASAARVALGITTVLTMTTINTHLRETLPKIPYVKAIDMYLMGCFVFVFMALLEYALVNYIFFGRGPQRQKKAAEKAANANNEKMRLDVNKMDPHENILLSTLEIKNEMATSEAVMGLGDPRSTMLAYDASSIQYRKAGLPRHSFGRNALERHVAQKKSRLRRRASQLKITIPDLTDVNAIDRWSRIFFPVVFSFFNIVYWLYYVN", "test": "[3H]-FNZ binding to crude synaptosomal membranes from rat CNS regions", "design": "washed crude synaptosomal membranes from rat cerebral cortex; from tissue; host or cells: Wistar rat cerebral cortex, cerebellum, hippocampus, striatum, spinal cord (crude synaptosomal membranes); species or system rat (Wistar)", "conditions": "Ki, [3H]-FNZ binding, rat cerebellum", "protocol": "(§1) Adult male Wistar rats weighing 250 g were used for biochemical experiments. Adult male Swiss male weighing 25-30 g were used for pharmacological assays except for inhibitory avoidance and tail flick tests were done in rats. Animals were housed in a controlled environment, with free access to food and water and maintained on a 12 h/12 h day/night cycle.\nDisplacement curves were performed using [^3 ]-FNZ or [^3 H]-zolpidem ([^3 H]-ZOLP) as radioligands in washed crude synaptosomal membranes from rat cerebral cortex, cerebellum, hippocampus, striatum or spinal cord. Membrane preparations were carried out according to Medina et al. (1990). Briefly, brains were rapidly dissected out on ice and the different structures were homogenized in 10 volumes of 0.32 M sucrose and centrifuged at 900×g for 10 min. […]\nFor [^3 H]-FNZ (84 Ci/mmol, NEN) displacement curves, different concentrations of DNF (0.3 nM to 1 μM) were added to 0.3 mg membrane protein suspended in 1 ml of 25 mM Tris HCl buffer in presence of 0.6 nM of the radioligand. […] Nonspecific binding (<5%) was determined in parallel incubations with 10 μM FNZ (Hoffmann-La Roche). […] The assays were determined by filtration under vacuum through Whatman GF/A glass fiber filters, and two washes with 3 ml each of incubation medium. Filters were dried and counted after the addition of 5 ml 2,5-diphenyl-oxazole (PPO)-xylene as scintillation fluid."}, "β adrenergic receptors": {"tested_on": "β adrenergic receptors", "test": "[3H]-dihidroalprenolol binding", "conditions": "20 μM; data not shown", "protocol": "(§2) Additional binding studies were performed as described elsewhere: [^3 ]-prazosin binding for α1 adrenergic receptors (Medina et al., 1984), [^3 H]-dihidroalprenolol binding for β adrenergic receptors (Medina et al. 1984), [^3 H]-quinuclinidyl benzylate binding for muscarinic cholinergic receptors (Jerusalinksy et al., 1983), [^3 H]-muscimol binding for GABAλ receptors (Medina et al., 1983) and [^3 H]-8-Hydroxydipropylaminotetralin ([^3 H]--OH--DPAT) binding for serotonin (5-HTlλ) receptors (Nenonene et al., 1984)."}, "mice [2]": {"tested_on": "mice", "test": "Locomotor activity test in mice", "assay_type": "in vivo, male Swiss mice", "conditions": "i.p.", "protocol": "as §1\nAn Opto-varimex® apparatus was used according to Viola et al. (1994). The apparatus discriminates between total and ambulatory activities. An increase in the number of transitions through the beams reflects augmented locomotor activity. In this and all following tests in mice, animals were i.p. injected with the vehicle, or with DNF 20 min before the beginning of the tests. In each session, control mice were tested in parallel with those animals receiving drug treatment."}, "rats": {"tested_on": "rats", "test": "Inhibitory avoidance test in rats", "assay_type": "in vivo, rat", "protocol": "This test was performed according to Izquierdo et al., (1990). The training apparatus was a 50×25×25 cm acrylic box with a frontal glass panel and a floor made of parallel 1 mm caliber bronze bars spaced […] apart. A 5 cm high, 7 cm wide formica platform was placed on the loft extreme of the box. Rats were placed on the platform and their latency to step-down placing their four paws on the grid was measured. On stepping-down they received a 0.35 mA, 2 s scrambled footshock and were withdrawn from the box (training session). The test session was carried out 20 h later and was similar to the training session in all respects except that the footshock was omitted. Test step-down latency (to a ceiling of 180 s) was taken as a measure of retention of inhibitory avoidance (Izquierdo et al., 1990)."}, "mice [3]": {"tested_on": "mice", "test": "Pentylenetetrazole (PTZ)-induced seizures", "assay_type": "in vivo", "protocol": "The effects of DNF on pentylenetetrazole (PTZ)--induced convulsions were evaluated according to Medina et al., (1990) with slight modifications. PTZ (200 mg/kg) was administered i.p. to mice 15 min after injection of drug or vehicle. The number of mice presenting clonic convulsions was determined.\nData are expressed as the percentage of mice presenting clonic or tonic-clonic seizures. ^3 number of animals per group."}, "[4]": {"tested_on": "benzodiazepine (BDZ-R) receptor", "test": "3H-Flunitrazepam binding to extensively washed bovine cerebral cortical membranes", "protocol": "Non-specific nitration of the flavone nucleus yielded the two nitrated flavone (II) and (IIa). […] Briefly, ^3 H-FNZ binding was carried out as described by Levy de Stein, M., Medina, J. H., De Robertis E., Mol. Brain Res. 1985, 5, 9-15. In brief, for each assay, triplicate samples of the membranes, containing 0.2 to 0.4 mg protein were suspended in a final volume of 1 mL of 0.25 mM Tris-HCl buffer, pH 7.3. The incubation was carried out at 4° C. for 60 minutes with 0.6 nM ^3 -FNZ. To study the binding saturation, a range of 0.3 to 10 nM ^3 H-FNZ was used. Non-specific binding was determined in parallel incubations in the presence of 3 μM FNZ, and represented 5-15% of total. The assays were terminated by filtration under vacuum though Whatman GF/A glass-fiber filters, and three washes with 3 mL each of incubation medium. Filters were dried and counted after the addition of 5 mL of 2,5-diphenyloxazole/xylene as scintillation fluid. Bovine cerebral cortical membranes were treated substantially following the method of Medina, J. H., De Robertis, E. J., J. Neurochem. 1985, 44, 1340-1345."}, "[5]": {"tested_on": "serotonin (5-HTlλ) receptors", "test": "[3H]-8-OH-DPAT binding", "conditions": "20 μM; data not shown", "protocol": "as §2"}}, "note": "“And” between values parts separate entries of the source, which are not always exact repeats. Equal values may be shown once."}
{"compound": "O=c1cc(-c2cccc([N+](=O)[O-])c2)oc2ccc([N+](=O)[O-])cc12", "note": "[Compound (II), 6,3'-dinitroflavone]", "values": [{"measurement": "Ki", "setting": "[1]", "result": "17 nM and 17.2 nM"}, {"measurement": "displacement of [3H]-dihidroalprenolol binding", "setting": "β adrenergic receptors", "result": "did not displace"}, {"measurement": "spontaneous ambulatory locomotion", "setting": "mice [2]; 0.3 mg/kg, p<0.05", "result": "slight increase"}, {"measurement": "reduction in the locomotion", "setting": "mice [2]; 10 mg/kg, p<0.01", "result": 55, "unit": "%"}, {"measurement": "spontaneous ambulatory locomotion", "setting": "mice [2]; up to 3 mg/kg", "result": "no effect on spontaneous ambulatory locomotion"}, {"measurement": "test session performance of inhibitory avoidance", "setting": "rats; rats, i.p., 100 μg/kg, pre or posttraining", "result": "no effect"}, {"measurement": "amnesic effects", "setting": "rats; up to 10 mg/kg as worded", "result": "did not evidence anticonvulsant, myorelaxant, amnesic"}, {"measurement": "% of convulsing mice", "setting": "mice [3]; DNF 0.03 mg/kg, n=6", "result": 100, "unit": "%"}, {"measurement": "% of convulsing mice", "setting": "mice [3]; DNF 0.1 mg/kg, n=12", "result": 75, "unit": "%"}, {"measurement": "% of convulsing mice", "setting": "mice [3]; DNF 0.3 mg/kg, n=15", "result": 80, "unit": "%"}, {"measurement": "% of convulsing mice", "setting": "mice [3]; DNF 1.0 mg/kg, n=13", "result": 92.4, "unit": "%"}, {"measurement": "% of convulsing mice", "setting": "mice [3]; DNF 3.0 mg/kg, n=5", "result": 100, "unit": "%"}, {"measurement": "% of convulsing mice", "setting": "mice [3]; DNF 6.0 mg/kg, n=7", "result": 100, "unit": "%"}, {"measurement": "prevention of PTZ-induced seizures", "setting": "mice [3]; mice, 30 μg/kg-6 mg/kg, PTZ 200 mg/kg", "result": "did not prevent the seizures"}, {"measurement": "anticonvulsant effects", "setting": "mice [3]; up to 10 mg/kg", "result": "did not evidence anticonvulsant"}, {"measurement": "Scatchard analysis of saturation curves (type of interaction)", "setting": "[4]; bovine membranes, compound (II) 20 nM (FIG. 1)", "result": "competitive interaction showing a decline in the apparent affinity without changes in the maximal number of sites (Bmax)"}, {"measurement": "Ki", "setting": "[4]; read-out: Ki, inhibition of 3H-FNZ binding, bovine cerebral cortical membranes, 0.6 nM 3H-FNZ, 4° C., 60 min, n=7", "result": "12 ± 1.7", "unit": "nM"}, {"measurement": "displacement of [3H]-8-HO-DPAT binding", "setting": "[5]", "result": "did not displace"}]}
